For the first experiment, the system named is LPS-induced TNF-α production in THP-1 cells. Nature of the experiment: Inhibition of LPS-Induced TNF-α Production in THP-1 Cells (ELISA). It is filed as cell-based. The settings on record: Homo sapiens; PMA-treated THP-1 cells, 1 μg/ml LPS, 6 hours, TNF-α by ELISA; read-out: IC50 (inhibition of TNF-α release). As to the method:
THP-1 cells were suspended in culture medium containing 50 ng/ml PMA (SIGMA), seeded into a 96-well tissue culture plate (IWAKI) at 1×10^5 cells/well (100 μl/well) and incubated as described above for approximately 48 hours. The medium was then aspirated, the wells washed twice in Phosphate Buffered Saline and 1 μg/ml LPS (SIGMA) in culture medium was added (200 μl/well).
Test compounds were reconstituted in DMSO (SIGMA) and then diluted with the culture medium such that the final DMSO concentration was 0.1%. Twenty microlitre aliquots of test solution or medium only with DMSO (solvent control) were added to triplicate wells immediately following LPS addition, and incubated for 6 hours as described above. Culture supernatants were collected and the amount of human TNF-α present was determined by ELISA (R&D Systems) performed according to the manufacturer's instructions.
The IC50 was defined as the concentration of the test compound corresponding to half maximal inhibition of the control activity by non-linear regression analysis of their inhibition curves.
Background: In an ELISA, binding on a coated surface is turned into a signal by an enzyme label.
Take `O=C(Nc1ccc(Cl)c(COc2cnccn2)c1)c1cc(F)cc(N2CCOCC2)c1` [Compound 94, N-[4-Chloro-3-(pyrazin-2-yloxymethyl)-phenyl]-3-fluoro-5-morpholin-4-yl-benzamide]: the IC50 was found to be 0.21 µM.

Consider `O=C(Nc1ccc(Cl)c(COc2ccc(NCCO)nc2)c1)c1cc(F)cc(N2CCOCC2)c1` [Compound 76, N-{4-Chloro-3-[6-(2-hydroxy-ethylamino)-pyridin-3-yloxymethyl]-phenyl}-3-fluoro-5-morpholin-4-yl-benzamide], for which the IC50 turned out to be 0.97 µM.

The target of another experiment is p38 MAP kinase (Homo sapiens, UniProt Q16539). Nature of the experiment: p38 MAP Kinase Assay (33P incorporation into myelin basic protein, filter plate). It is filed as biochemical. The settings on record: Table 1; MKK6-activated p38, MBP substrate, 50 minutes.
Sequence of p38 MAP kinase (Q16539 whole entry): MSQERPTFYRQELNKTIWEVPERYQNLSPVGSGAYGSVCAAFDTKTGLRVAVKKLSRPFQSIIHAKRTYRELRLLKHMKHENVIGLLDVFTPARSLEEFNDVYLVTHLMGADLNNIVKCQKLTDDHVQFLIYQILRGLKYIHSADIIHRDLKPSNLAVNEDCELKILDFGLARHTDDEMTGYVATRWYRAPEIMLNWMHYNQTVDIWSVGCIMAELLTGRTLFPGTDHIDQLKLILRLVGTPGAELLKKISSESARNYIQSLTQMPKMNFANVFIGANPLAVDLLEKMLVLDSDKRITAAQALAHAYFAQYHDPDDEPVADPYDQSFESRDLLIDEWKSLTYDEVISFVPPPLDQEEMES
As for `O=C(Nc1ccc(Cl)c(COc2ccc(NCCO)nc2)c1)c1cc(F)cc(N2CCOCC2)c1` [Compound 76, N-{4-Chloro-3-[6-(2-hydroxy-ethylamino)-pyridin-3-yloxymethyl]-phenyl}-3-fluoro-5-morpholin-4-yl-benzamide], the IC50 is less than 2 µM.

`Nc1ncccc1OCc1cccc(OC(F)(F)F)c1` [Compound 24] returned an IC50 of less than 10000 µM.

Consider `O=S(=O)(c1ccccc1)N(c1ccc(Cl)c(COc2cccnc2)c1)S(=O)(=O)c1ccccc1` [Compound 56, N-[4-Chloro-3-(pyridin-3-yloxymethyl)-phenyl]-bisbenzenesulfonamide], for which the IC50 was less than 1000 µM.

Compound `OCCNc1ccc(OCc2ccccc2)cn1` [Compound 45] came in with an IC50 of less than 200 µM.

For the compound `CC(C)(C)c1ccccc1NC(=O)Nc1ccc(F)c(COc2cccnc2)c1` [Compound 78, 1-(2-tert-Butyl-phenyl)-3-[4-fluoro-3-(pyridin-3-yloxymethyl)-phenyl]-urea], the IC50 was less than 20 µM.

The compound `O=C(Nc1ccccc1)Nc1ccc(Cl)c(COc2cccnc2)c1` [Compound 61, 1-[4-Chloro-3-(pyridin-3-yloxymethyl)-phenyl]-3-phenyl-urea] returned an IC50 of less than 20 µM.

On to `Nc1ncccc1OCc1cccc(C(=O)NCc2cccc3ccccc23)c1` [Compound 33], for which the IC50 was less than 1000 µM.

The experiment is the same for the next values; noted with them: Table 2; MKK6-activated p38, MBP substrate, 50 minutes.
Take `O=C(Nc1ccc(Cl)c(COc2cnccn2)c1)c1cc(F)cc(N2CCOCC2)c1` [Compound 94, N-[4-Chloro-3-(pyrazin-2-yloxymethyl)-phenyl]-3-fluoro-5-morpholin-4-yl-benzamide]: the IC50 was less than 2 µM.

On to `O=C(Nc1ccc(F)c(COc2cnccn2)c1)Nc1nnc(-c2ccccc2)s1` [Compound 115, 1-[4-Fluoro-3-(pyrazin-2-yloxymethyl)-phenyl]-3-(5-phenyl-[1,3,4]thiadiazol-2-yl)-urea], for which the IC50 is less than 200 µM.

Take `CC(C)(C)C(=O)Nc1cnc(OCc2c(Cl)cccc2Cl)cn1` [Compound 167]: the IC50 is less than 200 µM.

The compound `Cc1cc(C)c2nc(NC(=O)Nc3ccc(F)c(COc4cnccn4)c3)sc2c1` [Compound 116, 1-(4,6-Dimethyl-benzothiazol-2-yl)-3-[4-fluoro-3-(pyrazin-2-yloxymethyl)-phenyl]-urea] displayed an IC50 of less than 1000 µM.

In the case of `Cc1nc2sccn2c1C(=O)Nc1ccc(F)c(COc2cnccn2)c1` [Compound 144, 6-Methyl-imidazo[2,1-b]thiazole-5-carboxylic acid [4-fluoro-3-(pyrazin-2-yloxymethyl)-phenyl]-amide], the IC50 is less than 2 µM.

Consider `O=C(Nc1ccc(F)c(COc2cnccn2)c1)c1ccc2ccccc2c1` [Compound 131, Naphthalene-2-carboxylic acid [4-fluoro-3-(pyrazin-2-yloxymethyl)-phenyl]-amide], for which the IC50 was less than 20 µM.

Regarding `CC(C)(C)c1cccc(C(=O)Nc2ccc(F)c(COc3cnccn3)c2)c1` [Compound 103, 3-tert-Butyl-N-[4-fluoro-3-(pyrazin-2-yloxymethyl)-phenyl]-benzamide], the IC50 is less than 2 µM.

Consider `CC(C)(C)c1cc(C(=O)Nc2ccc(F)c(COc3cnccn3)c2)n(Cc2ccc(F)cc2)n1` [Compound 136, 5-tert-Butyl-2-(4-fluoro-benzyl)-2H-pyrazole-3-carboxylic acid [4-fluoro-3-(pyrazin-2-yloxymethyl)-phenyl]-amide], for which the IC50 is less than 20 µM.

In the case of `O=C(Nc1ccc(F)c(COc2cnccn2)c1)Nc1cc(-c2ccccc2)nn1-c1ccccc1` [Compound 134, 1-(2,5-Diphenyl-2H-pyrazol-3-yl)-3-[4-fluoro-3-(pyrazin-2-yloxymethyl)-phenyl]-urea], the IC50 is less than 2 µM.

In general, IC50 refers to the concentration that inhibits the measured activity by half.

The values are drawn from patent US20060063782A1, “3-Hetero arylmethoxy ! pyridines and their analogues as p38 map kinase inhibitors” (priority 2002, published 2006).
